In ChEMBL document CHEMBL3112451, “Synthesis of 2',3',4'-trihydroxyflavone (2-D08), an inhibitor of protein sumoylation” (Bioorg Med Chem Lett, 2014):
Activity calls are given as the source filed them. The calls are words filed in the database; no cut-off is given here.

Target: SUMO E1/E2 (Homo sapiens) (UniProt Q9UBE0+Q9UBT2+P63279)
Experiment: Inhibition of purified SUMO E1/E2 (unknown origin)-mediated conjugation of His6-SUMO-1 to fluorescent peptide FL-AR at 30 uM after 90 mins by microfluidic electrophoretic mobility shift assay
Format: protein-complex assay

SMILES	inhibition
O=c1cc(-c2ccccc2O)oc2c(O)c(O)ccc12	inactive
O=C(/C=C(\O)c1ccccc1O)c1ccc(O)c(O)c1O	Active
O=c1cc(-c2ccc(O)c(O)c2O)oc2ccccc12	Active
